Where a name gives a salt, the structure may show the parent alone. Residues, ends and D or L forms follow the SMILES beside them. *: point of attachment. Cbz = O=C(OCc1ccccc1)*
Tests used:
[1] = target: 20S proteasome chymotrypsin-like activity (Homo sapiens, UniProt P28074); assay: Chymotrypsin-like activity inhibition test; type: biochemical; details: for remaining activity at 10 µM: read-out: % Control, Chymotrypsin-like Activity
OVCAR-8 = assay: Proliferation inhibition of ovarian cancer cells; type: cell-based; details: Homo sapiens
Experimental: (§1) As a comparison for the inhibition activity, tamoxifen citrate (TAM) was used. In the Table, the concentration units are μM.
(§2) In the same way as in Example 9, the proliferation inhibition activity of naforidaifens A to G was measured with respect to five types of ovarian cancer cells (OVCAR-3, OVCAR-4, OVCAR-5, OVCAR-8, AND SK-OV-3). In the Table, the concentration units are μM.

OVCAR-3 = assay: Proliferation inhibition of ovarian cancer cells; type: cell-based; details: Homo sapiens
Experimental: as §1, §2

OVCAR-5 = assay: Proliferation inhibition of ovarian cancer cells; type: cell-based; details: Homo sapiens
Experimental: as §1, §2

OVCAR-4 = assay: Proliferation inhibition of ovarian cancer cells; type: cell-based; details: Homo sapiens
Experimental: as §1, §2

SK-OV-3 = assay: Proliferation inhibition of ovarian cancer cells; type: cell-based; details: Homo sapiens
Experimental: as §1, §2

KM-12 = assay: Proliferation inhibition of colon cancer cells; type: cell-based; details: Homo sapiens, KM12
Experimental: as §1
(§3) In the same way as in Example 9, the proliferation inhibition activity of naforidaifens A to G was measured with respect to five types of colon cancer cells (HCC2998, KM-12, HT-29, HCT-15, and HCT-116). In the Table, the concentration units are μM.

HCT-15 = assay: Proliferation inhibition of colon cancer cells; type: cell-based; details: Homo sapiens
Experimental: as §1, §3

HCT-116 = assay: Proliferation inhibition of colon cancer cells; type: cell-based; details: Homo sapiens
Experimental: as §1, §3

HCC2998 = assay: Proliferation inhibition of colon cancer cells; type: cell-based; details: Homo sapiens, HCC 2998
Experimental: as §1, §3

HT-29 = assay: Proliferation inhibition of colon cancer cells; type: cell-based; details: Homo sapiens
Experimental: as §1, §3

MKN45 = assay: Proliferation inhibition of stomach cancer cells; type: cell-based; details: Homo sapiens, MKN-45
Experimental: as §1
(§4) In the same way as in Example 9, the proliferation inhibition activity of naforidaifens A to G was measured with respect to six types of stomach cancer cells (St-4, MKN1, MKN7, MKN28, MKN45, MKN74). In the Table, the concentration units are μM.

MKN74 = assay: Proliferation inhibition of stomach cancer cells; type: cell-based; details: Homo sapiens, MKN-74
Experimental: as §1, §4

St-4 = assay: Proliferation inhibition of stomach cancer cells; type: cell-based; details: Homo sapiens
Experimental: as §1, §4

MKN28 = assay: Proliferation inhibition of stomach cancer cells; type: cell-based; details: Homo sapiens, MKN-28
Experimental: as §1, §4

MKN7 = assay: Proliferation inhibition of stomach cancer cells; type: cell-based; details: Homo sapiens, MKN-7
Experimental: as §1, §4

MKN1 = assay: Proliferation inhibition of stomach cancer cells; type: cell-based; details: Homo sapiens, MKN-1
Experimental: as §1, §4

SF-268 = assay: Inhibition of propagation of central nervous system cancer cells (sulforhodamin B); type: cell-based; details: Homo sapiens, 48 h; SF-268, two days of cultivation
Source text: as §1

U251 = assay: as above; type: cell-based; details: Homo sapiens, U-251, 48 h; U251, two days of cultivation
Source text: as §1

SNB-75 = assay: as above; type: cell-based; details: Homo sapiens, 48 h; SNB-75, two days of cultivation
Source text: as §1

SNB-78 = assay: as above; type: cell-based; details: Homo sapiens, 48 h; SNB-78, two days of cultivation
Source text: as §1

SF-295 = assay: as above; type: cell-based; details: Homo sapiens, 48 h; SF-295, two days of cultivation
Source text: as §1

SF-539 = assay: as above; type: cell-based; details: Homo sapiens, 48 h; SF-539, two days of cultivation
Source text: as §1

20S proteasome = 20S proteasome (Homo sapiens, UniProt P28072+P28074+Q99436); assay: Proteasome inhibition activity, overall judgement; type: biochemical; details: for Proteasome selectivity: judgement; for The evaluations (proteasome inhibition activity): overall judgement positive/negative
Cathepsin B = assay: Cathepsin-like activity inhibition test; type: biochemical
Experimental: Cathepsin-Like Activity Inhibition Test
(§5) 1) To 20S proteasome, naforidaifen B adjusted to a concentration of 10 μM was added, and incubated at 30° C. for 10 min.
2) To the above test system, fluorescence labeled cathepsin including a 20S proteasome segmenting sequence was added, and reacted for 1 hr at 30° C.
(§6) 3) The fluorescent substance (AMC) released by the above reaction was excited with 360 nm light and assayed with 460 nm light.
(§7) 4) A test system to which naforidaifen B was not added was measured in the same way as (1) to (3) above, and the enzyme activity for the case of using naforidaifen B was measured.
(§8) 5) Stepwise diluted solutions containing naforidaifen B were prepared, and after carrying out the same evaluations as in (1) to (4), the 50% inhibition concentration (IC50) was determined.
6) As a positive control of the enzyme activity, the known proteasome inhibitor Clasto-Lactacystin β-Lactone (Lactacystin activator) and MGI32 were evaluated with the steps (1) to (5).

[2] = target: 20S proteasome caspase-like activity (Homo sapiens, UniProt P28072); assay: Caspase-like activity inhibition test; type: biochemical; details: for remaining activity at 10 µM: read-out: % Control, Caspase-like Activity
α-chymotrypsin = α-chymotrypsin (Bos taurus, UniProt P00766); assay: α-Chymotrypsin-like activity inhibition test; type: biochemical
Experimental: α-Chymotrypsin-Like Activity Inhibition Test
as §5
2) To the above test system, fluorescence labeled α-chymotrypsin including a 20S proteasome segmenting sequence was added, and reacted for 1 hr at 30° C.
as §6, §7, §8
6) As a positive control of the enzyme activity, the well-known proteasome inhibitor Clasto-Lactacystin β-Lactone (Lactacystin activator) and MGI32 were evaluated with the steps (1) to (5).

[3] = target: 20S proteasome trypsin-like activity (Homo sapiens, UniProt Q99436); assay: Trypsin-like activity inhibition test; type: biochemical; details: for remaining activity at 10 µM: read-out: % Control, Trypsin-like Activity
[4] = tested on: central nervous system cancer cells; assay: Proliferation inhibition, central nervous system cancer cell panel (summary); type: cell-based; details: read-out: cytotoxic activity (extent of effective concentration)
Source text: as §1

Compound | remaining activity at 10 µM [1] | IC50 [1] | GI50 (OVCAR-8) | GI50 (OVCAR-3) | GI50 (OVCAR-5) | GI50 (OVCAR-4) | GI50 (SK-OV-3) | GI50 (KM-12) | GI50 (HCT-15) | GI50 (HCT-116) | GI50 (HCC2998) | GI50 (HT-29) | GI50 (MKN45) | GI50 (MKN74) | GI50 (St-4) | GI50 (MKN28) | GI50 (MKN7) | GI50 (MKN1) | GI50 (SF-268) | GI50 (U251) | also measured
CC(C)C[C@@H](C=O)NC(=O)[C@H](CC(C)C)NC(=O)[C@H](CC(C)C)NC(=O)OCc1ccccc1 [MG132, reference compound] (Cbz-Leu-Leu-Leu-aldehyde) | 0% | – | – | – | – | – | – | – | – | – | – | – | – | – | – | – | – | – | – | – | –
CC(C)[C@H](O)[C@@]12NC(=O)[C@H](C)[C@@H]1OC2=O [Clasto-Lactacystin β-Lactone, reference compound] | – | 39 nM | – | – | – | – | – | – | – | – | – | – | – | – | – | – | – | – | – | – | % Control, Chymotrypsin-like Activity ([1]; Concentration 10 μM): 0%
CC/C(=C(\c1ccccc1)c1ccc(OCCN(C)C)cc1)c1ccccc1 [TAM, tamoxifen citrate, reference compound] | – | – | 11200 nM | 4680 nM | 4370 nM | 6030 nM | 20000 nM | 3550 nM | 5890 nM | 7240 nM | 2950 nM | 2340 nM | 8320 nM | 3240 nM | 6310 nM | 6310 nM | 5250 nM | 10200 nM | 12000 nM | 7760 nM | GI50 (SNB-75): 5010 nM; GI50 (SNB-78): 13500 nM; GI50 (SF-295): 4170 nM; GI50 (SF-539): 3720 nM
c1ccc(C2=C(c3ccc(OCCN4CCCC4)cc3)c3ccc(OCCN4CCCC4)cc3CC2)cc1 [Naforidaifen B, 4-[4-(2-pyrrolidine-1-yl-ethoxy)phenyl]-7-(2-pyrrolidine-1-yl-ethoxy)-3-phenyl-1,2-dihydronaphthalene] | 27.1% | 4600 nM | 3800 nM | 1580 nM | 1620 nM | 1320 nM | 3090 nM | 1950 nM | 2340 nM | 1260 nM | 1580 nM | 1450 nM | 1660 nM | 1660 nM | 1860 nM | 2190 nM | 1580 nM | 1480 nM | 2090 nM | 1580 nM | Proteasome selectivity (20S proteasome): present; The evaluations (proteasome inhibition activity) (20S proteasome): positive; Cathepsin B inhibition (Cathepsin B): none; GI50 (SNB-75): 2000 nM; GI50 (SNB-78): 1910 nM; GI50 (SF-295): 1910 nM; GI50 (SF-539): 1860 nM; IC50 [2]: 2500 nM; remaining activity at 10 µM [2]: 16.5%; α-chymotrypsin inhibition (α-chymotrypsin): none; IC50 [3]: 8600 nM; remaining activity at 10 µM [3]: 35.3%
c1ccc(C2=C(c3ccc(OCCN4CCOCC4)cc3)c3ccc(OCCN4CCOCC4)cc3CC2)cc1 [Naforidaifen D, 4-[4-(2-morpholine-1-yl-ethoxy)phenyl]-7-(2-morpholine-1-yl-ethoxy)-3-phenyl-1,2-dihydronaphthalene] | 22.1% | 6800 nM | 25700 nM | 17400 nM | 6920 nM | 18600 nM | 15500 nM | 20000 nM | 19100 nM | 14800 nM | 17800 nM | 12600 nM | 16600 nM | 19500 nM | 15500 nM | 45700 nM | 19500 nM | 18600 nM | 38900 nM | 15500 nM | Proteasome selectivity (20S proteasome): present; The evaluations (proteasome inhibition activity) (20S proteasome): positive; Cathepsin B inhibition (Cathepsin B): none; GI50 (SNB-75): 20400 nM; GI50 (SNB-78): 28800 nM; GI50 (SF-295): 14500 nM; GI50 (SF-539): 15800 nM; IC50 [2]: 4600 nM; remaining activity at 10 µM [2]: 21.9%; α-chymotrypsin inhibition (α-chymotrypsin): none; IC50 [3]: 4100 nM; remaining activity at 10 µM [3]: 21.6%
CCN(CC)CCOc1ccc(C2=C(c3ccccc3)CCc3cc(OCCN(CC)CC)ccc32)cc1 [Naforidaifen E, 4-[4-(2-diethylamino-1-yl-ethoxy)phenyl]-7-(2-diethylamino-1-yl-ethoxy)-3-phenyl-1,2-dihydronaphthalene] | 49.6% | 9900 nM | 2450 nM | 1860 nM | 1580 nM | 2190 nM | 1910 nM | 1950 nM | 1580 nM | 1200 nM | 1580 nM | 813 nM | 1660 nM | 1230 nM | 1550 nM | 1820 nM | 1410 nM | 1410 nM | 1820 nM | 1510 nM | Proteasome selectivity (20S proteasome): present; The evaluations (proteasome inhibition activity) (20S proteasome): positive; Cathepsin B inhibition (Cathepsin B): none; GI50 (SNB-75): 1510 nM; GI50 (SNB-78): 1620 nM; GI50 (SF-295): 1820 nM; GI50 (SF-539): 1860 nM; IC50 [2]: > 10000 nM; remaining activity at 10 µM [2]: 54.6%; α-chymotrypsin inhibition (α-chymotrypsin): none; IC50 [3]: > 10000 nM; remaining activity at 10 µM [3]: 162%
CN(C)CCOc1ccc(C2=C(c3ccccc3)CCc3cc(OCCN(C)C)ccc32)cc1 [Naforidaifen A, 4-[4-(2-dimethylamino-1-yl-ethoxy)phenyl]-7-(2-dimethylamino-1-yl-ethoxy)-3-phenyl-1,2-dihydronaphthalene] | 99.5% | > 10000 nM | 2880 nM | 1620 nM | 1550 nM | 2140 nM | 2290 nM | 1860 nM | 1660 nM | 1100 nM | 1480 nM | 759 nM | 1740 nM | 1410 nM | 1480 nM | 1820 nM | 1580 nM | 1480 nM | 1950 nM | 1450 nM | The evaluations (proteasome inhibition activity) (20S proteasome): negative; IC50 [4]: 1400 to 1900 nM; GI50 (SNB-75): 1480 nM; GI50 (SNB-78): 1820 nM; GI50 (SF-295): 1740 nM; GI50 (SF-539): 1550 nM

From patent publication US8183235B2, “Dihydronaphthalene compound and use thereof” (Tokyo University of Science Educational Foundation …, priority 2007, dated 2012)
